The source of these data is ChEMBL document CHEMBL5729487, “Small molecule inhibition of transcription factor SALL4 and uses thereof” (2022).

In the experiment the target is T1, Sal-like protein 4 (Homo sapiens, UniProt Q9UJQ4).
T1 sequence (Q9UJQ4 whole entry): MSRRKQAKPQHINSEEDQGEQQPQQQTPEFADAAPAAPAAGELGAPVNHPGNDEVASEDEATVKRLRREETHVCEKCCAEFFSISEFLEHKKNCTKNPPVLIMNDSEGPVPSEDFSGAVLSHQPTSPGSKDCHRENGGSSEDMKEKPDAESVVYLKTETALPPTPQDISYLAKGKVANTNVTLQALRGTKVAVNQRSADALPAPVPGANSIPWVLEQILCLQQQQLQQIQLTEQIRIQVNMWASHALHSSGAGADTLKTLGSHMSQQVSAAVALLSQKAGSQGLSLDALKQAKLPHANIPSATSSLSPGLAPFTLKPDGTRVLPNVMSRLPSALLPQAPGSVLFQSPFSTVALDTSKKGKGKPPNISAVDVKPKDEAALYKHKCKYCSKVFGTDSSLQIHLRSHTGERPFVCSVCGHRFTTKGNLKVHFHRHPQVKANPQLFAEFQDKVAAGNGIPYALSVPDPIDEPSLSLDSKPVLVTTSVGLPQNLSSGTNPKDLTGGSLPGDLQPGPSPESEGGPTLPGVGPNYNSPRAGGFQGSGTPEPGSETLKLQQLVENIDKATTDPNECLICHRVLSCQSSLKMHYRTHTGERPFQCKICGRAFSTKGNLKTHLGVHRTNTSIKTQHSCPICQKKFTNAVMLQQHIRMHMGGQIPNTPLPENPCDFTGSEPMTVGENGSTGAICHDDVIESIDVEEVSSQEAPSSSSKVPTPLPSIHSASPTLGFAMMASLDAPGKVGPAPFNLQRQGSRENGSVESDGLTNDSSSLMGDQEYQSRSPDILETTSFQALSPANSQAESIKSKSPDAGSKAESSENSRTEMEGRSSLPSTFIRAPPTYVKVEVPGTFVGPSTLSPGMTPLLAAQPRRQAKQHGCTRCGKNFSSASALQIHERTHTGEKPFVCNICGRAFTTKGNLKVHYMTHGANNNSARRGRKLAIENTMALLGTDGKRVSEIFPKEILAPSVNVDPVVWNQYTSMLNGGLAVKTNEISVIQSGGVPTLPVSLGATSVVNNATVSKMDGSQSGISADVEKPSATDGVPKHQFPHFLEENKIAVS
Description: TBD: TBD.

Consider `COc1ccc(Nc2c(-c3c(O)ccc4ccccc34)nc3cnccn23)cc1`, for which it took 619 nM to reach half-maximal inhibition (IC50). The same measure for `Oc1ccc2ccccc2c1-c1nc2ccccn2c1NCCN1CCOCC1`: 2230 nM.

The compound `Oc1ccc2ccccc2c1-c1nc2cnccn2c1NCCN1CCOCC1` came in with a 50% inhibitory concentration (IC50) of 1360 nM. To `Oc1ccc2ccccc2c1-c1nc2ccccn2c1NC1CC1` belongs 109 nM.

The compound `COc1ccc(CCNc2c(-c3c(O)ccc4ccccc34)nc3cnccn23)cc1OC` showed an IC50 of 2490 nM.

`N#Cc1ccc(Nc2c(-c3c(O)ccc4ccccc34)nc3cnccn23)cc1` registered an IC50 of 498 nM.

`Oc1ccc2ccccc2c1-c1nc2ccccn2c1NC1CCCCC1` gave an IC50 of 2770 nM. In the case of `Oc1ccc2ccccc2c1-c1nc2ccccn2c1NCc1ccccc1`, the midpoint of inhibition, the IC50, lay at 1510 nM. Against the preceding compound, the IC50 is about 1.8-fold lower. For the compound `Oc1ccc2ccccc2c1-c1nc2cnccn2c1NCc1ccccc1`, the IC50 was determined as 594 nM.

Compound `COC(=O)c1cccc(Nc2c(-c3c(O)ccc4ccccc34)nc3cnccn23)c1` registered an IC50 of 623 nM. Turning to `Oc1ccc2ccccc2c1-c1nc2cnccn2c1NC1CCCCC1`, the IC50 worked out at 616 nM. In turn, `Oc1ccc2ccccc2c1-c1nc2cnccn2c1NC1CC1` yielded an IC50 of 335 nM. Take `CC(C)(C)Nc1c(-c2c(O)ccc3ccccc23)nc2ccccn12`: the IC50 was 162 nM. As for `COCCNc1c(-c2c(O)ccc3ccccc23)nc2cnccn12`, inhibition was half-maximal at 434 nM (IC50). `CC(C)(C)Nc1c(-c2c(O)ccc3ccccc23)nc2cnccn12` displayed an IC50 of 783 nM. `COc1cccc(CNc2c(-c3c(O)ccc4ccccc34)nc3cnccn23)c1`: the IC50 was 288 nM. This IC50 is about 2.7-fold lower than that of the compound before.

The IC50 is the concentration that gives 50% inhibition. A low value points to inhibition by little substance.
